Laboratory results taken from publication PMC7033278, “A Nonpeptide Oxytocin Receptor Agonist for a Durable Relief of Inflammatory Pain” (Scientific Reports, 2020).
Entries after “also recorded” stand apart in the source; their conditions may differ. Like-named read-outs stand apart in the source and are kept apart here.

What was measured:
24 off-target GPCRs = experiment: Eurofins SafetyScreen functional panel, GPCR agonist and antagonist profile; format: cell-based; conditions: 5 μM, 24 GPCRs
Description: (§1) In vitro profiling of LIT-001 was performed by Eurofins as described in the Eurofins SafetyScreen-Functional panel, 2018[31]. The hepatotoxicity of LIT-001 was studied with cryo-preserved mouse hepatocytes. After unfreezing (optiTHAW and optiINCUBATE media, Xenotech) and cell viability control, cells (2 × 10^6 cells/ml) were dispatched in 96 well microtiterplates. LIT-001 was added to reach a concentration 1 μM in the presence of 1 × 10^6 cells/mL in a volume of 100 μl/well. The incubation was stopped at 4, 20, 40, 80 and 120 min in adding 100 μl of acetonitrile at 0 °C. A positive control was treated in the same conditions. All samples were analyzed by UHPLC coupled to a mass spectrometer (Shimadzu LC-MS 8030).

hERG = hERG (Homo sapiens, UniProt Q12809); experiment: hERG inhibition, patch clamp method; format: cell-based
[1] = thermodynamic solubility in PBS pH 7.4; format: physicochemical; conditions: PBS buffer, read-out: thermodynamic water solubility (S)
Description: Solubility of LIT-001 was determined from solution of about 1 mg of compound in 500 μl of PBS at pH 7.4. (Figs. 1, S1) The solution was stirred at room temperature for 24 h and centrifuged at 15.000 × g for 5 min. The supernatant was diluted with a mixture of acetonitrile and water and analyzed by HPLC with a diode detector (Gilson; Kinetex 2.6 μm C18 100 A 50 × 4.6 mm column). […] The lipophilicity (LogD7.4) of LIT-001 was measured using […] of a stock solution diluted with different concentrations of octanol and PBS to cover a LogP range from −2 to + 4.5 in a final volume of 1 ml. After stirring for 1 h at room temperature (≈ 20 °C), the samples were centrifuged and the different phases were analyzed by HPLC (Gilson; diode detector, Kinetex 2.6 μ C18 100 A 50 × 4.6 mm column).

PDE3A = biological target: T1, PDE3A (Homo sapiens, UniProt Q14432); experiment: enzyme inhibition; format: biochemical; conditions: range given for five enzymes together, below significance
T1 construct: Eurofins (contract assay)
Description: as §1

[2] = biological target: T2, MAO-A from human placenta (Homo sapiens, UniProt P21397); experiment: enzyme inhibition; format: biochemical; conditions: range given for five enzymes together, below significance
T2 construct: MAO-A from human placenta; tissue Eurofins (contract assay); host or cells: human placenta
Description: as §1

Lck kinase = biological target: T3, Lck kinase (Homo sapiens, UniProt P06239); experiment: enzyme inhibition; format: biochemical; conditions: range given for five enzymes together, below significance
T3 construct: Eurofins (contract assay)
Description: as §1

acetylcholinesterase = biological target: T4, acetylcholinesterase (Homo sapiens, UniProt P22303); experiment: enzyme inhibition; format: biochemical; conditions: range given for five enzymes together, below significance
T4 construct: Eurofins (contract assay)
Description: as §1

[3] = biological target: T5, ionotropic TRPV1 receptor (Homo sapiens, UniProt Q8NER1); experiment: Eurofins functional profiling, TRPV1 agonist/antagonist; format: cell-based; conditions: 5 μM
T5 construct: Eurofins (contract assay)
Description: as §1

[4] = tested on: V2 vasopressin receptor (V2R); design: method as in PMID 30199637; conditions: cited from earlier work
[5] = stability in human hepatocytes; format: in vitro ADME
Description: Stability of LIT-001 was determined in human hepatocytes. Cells were unfrozen and their viability measured (Tryptan blue). Cells are suspended (2 × 10^6 cells/ml) and dispensed in 96 well microtiterplates (50 μl/well). LIT-001 (50 μl of a 2 μM in the incubation media) was added. The final concentration of the compound was 1 μM in 1 × 10^6 cells/ml. The incubation volume was 100 μl/well. Incubations were stopped after 0, 4, 20, 40, 80 and 120 min in mixing the well content with 100 μl acetonitrile at 0 °C. A positive control (testosterone) was prepared in same conditions. All samples were analyzed by LC-MS/MS (UHPLC coupled to a triple quadripole Shimadzu LC-MS 8030). Each measurement was performed in triplicate.

[6] = tested on: CFA-induced inflammatory pain model; experiment: CFA-induced edema size (hindpaw diameter); format: in vivo; conditions: rat, i.p. LIT-001 10 mg/kg at D1 after CFA
Description: LIT-001 was prepared as described in Frantz et al.[20]. For in vivo biological assays, it was dissolved in carboxymethyl cellulose (CMC, 1%) - NaCl (0.9%) and administered at the dose of 10 mg/kg. LIT-001 or vehicle were injected intraperitoneally (i.p.), in a volume of 10 ml/kg[20], 24 h after the induction of the CFA-induced painful inflammatory sensitization. To confirm the implication of the OTR we injected (i.p.) also L-368,899 (Sigma, St. Louis, MO) (1 mg/kg), an OTR antagonist, in combination with LIT-001 in another group of rats[11].
Male Wistar rats (300 g; JANVIER LABS, Le Genest St. Isle, France) were used for this study. They were housed by groups of 3 or 4 under standard conditions (room temperature, 22 °C; 12/12 h light/dark cycle) with ad libitum access to food and water and behavioral enrichment. All animals were manipulated and habituated to the tests and to the room for at least 2 weeks. All behavioral tests were done during the light period (i.e., between 7:00 and 19:00). All the procedures were performed in accordance with European committee council Direction, authorization from French Department of Agriculture and from the regional ethic committee.
In order to induce a peripheral inflammation, 100 μl of complete Freund adjuvant (CFA; Sigma, St. Louis, MO), was injected in the right hindpaw of the rat. […]

[7] = biological target: T6, human hERG potassium channel (Homo sapiens, UniProt Q12809); experiment: ion channel blockade panel; format: cell-based; conditions: 5 μM
T6 construct: Eurofins (contract assay)
Description: as §1

[8] = biological target: T7, GABAA (alpha1/beta2/gamma2) (Homo sapiens, UniProt P14867+P18507+P47870); experiment: ion channel blockade panel; format: cell-based; conditions: 5 μM
T7 construct: Eurofins (contract assay)
Description: as §1

Vav1.5 sodium channel = biological target: T8, Vav1.5 sodium channel (Homo sapiens, UniProt Q14524); experiment: ion channel blockade panel; format: cell-based; conditions: 5 μM
T8 construct: Eurofins (contract assay)
Description: as §1

nAChR (alpha4/beta2) = biological target: T9, nAChR (alpha4/beta2) (Homo sapiens, UniProt P17787+P43681); experiment: ion channel blockade panel; format: cell-based; conditions: 5 μM
T9 construct: Eurofins (contract assay)
Description: as §1

mOTR = tested on: mOTR; design: method as in PMID 30199637; conditions: mouse receptor, cited from earlier work
V1bR (hV1BR) = tested on: V1bR (hV1BR); design: method as in PMID 30199637; conditions: cited from earlier work

Sequence of hERG (Q12809 whole entry): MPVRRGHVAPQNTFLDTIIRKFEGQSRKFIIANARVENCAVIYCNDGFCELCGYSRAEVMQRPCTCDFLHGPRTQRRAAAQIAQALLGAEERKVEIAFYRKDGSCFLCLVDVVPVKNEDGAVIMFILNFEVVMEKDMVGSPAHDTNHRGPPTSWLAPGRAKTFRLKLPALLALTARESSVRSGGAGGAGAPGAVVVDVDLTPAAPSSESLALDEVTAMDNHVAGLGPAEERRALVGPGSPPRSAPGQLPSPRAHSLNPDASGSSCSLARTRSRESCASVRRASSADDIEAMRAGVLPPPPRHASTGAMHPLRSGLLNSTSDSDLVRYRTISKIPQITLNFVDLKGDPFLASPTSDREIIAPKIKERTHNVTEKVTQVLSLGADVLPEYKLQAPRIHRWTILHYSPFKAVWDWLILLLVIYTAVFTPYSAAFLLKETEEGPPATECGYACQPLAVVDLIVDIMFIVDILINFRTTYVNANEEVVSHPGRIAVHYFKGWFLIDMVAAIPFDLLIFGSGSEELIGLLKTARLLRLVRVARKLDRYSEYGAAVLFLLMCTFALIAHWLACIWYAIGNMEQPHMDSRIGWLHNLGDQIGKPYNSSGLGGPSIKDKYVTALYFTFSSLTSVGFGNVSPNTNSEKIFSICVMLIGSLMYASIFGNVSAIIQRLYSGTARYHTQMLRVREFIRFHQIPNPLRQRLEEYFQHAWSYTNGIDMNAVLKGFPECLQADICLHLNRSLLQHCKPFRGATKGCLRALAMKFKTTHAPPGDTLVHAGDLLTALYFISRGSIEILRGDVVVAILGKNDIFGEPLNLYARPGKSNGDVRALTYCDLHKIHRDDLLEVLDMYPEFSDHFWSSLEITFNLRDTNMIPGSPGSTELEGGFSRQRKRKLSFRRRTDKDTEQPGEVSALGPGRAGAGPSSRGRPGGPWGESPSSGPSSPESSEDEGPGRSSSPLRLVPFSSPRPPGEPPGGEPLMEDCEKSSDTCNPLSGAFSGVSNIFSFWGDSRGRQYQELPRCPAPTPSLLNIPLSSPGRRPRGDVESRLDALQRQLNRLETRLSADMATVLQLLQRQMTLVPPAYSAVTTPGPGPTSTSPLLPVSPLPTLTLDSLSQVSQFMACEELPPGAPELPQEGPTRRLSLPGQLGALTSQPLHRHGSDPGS
T5 sequence (Q8NER1 whole entry): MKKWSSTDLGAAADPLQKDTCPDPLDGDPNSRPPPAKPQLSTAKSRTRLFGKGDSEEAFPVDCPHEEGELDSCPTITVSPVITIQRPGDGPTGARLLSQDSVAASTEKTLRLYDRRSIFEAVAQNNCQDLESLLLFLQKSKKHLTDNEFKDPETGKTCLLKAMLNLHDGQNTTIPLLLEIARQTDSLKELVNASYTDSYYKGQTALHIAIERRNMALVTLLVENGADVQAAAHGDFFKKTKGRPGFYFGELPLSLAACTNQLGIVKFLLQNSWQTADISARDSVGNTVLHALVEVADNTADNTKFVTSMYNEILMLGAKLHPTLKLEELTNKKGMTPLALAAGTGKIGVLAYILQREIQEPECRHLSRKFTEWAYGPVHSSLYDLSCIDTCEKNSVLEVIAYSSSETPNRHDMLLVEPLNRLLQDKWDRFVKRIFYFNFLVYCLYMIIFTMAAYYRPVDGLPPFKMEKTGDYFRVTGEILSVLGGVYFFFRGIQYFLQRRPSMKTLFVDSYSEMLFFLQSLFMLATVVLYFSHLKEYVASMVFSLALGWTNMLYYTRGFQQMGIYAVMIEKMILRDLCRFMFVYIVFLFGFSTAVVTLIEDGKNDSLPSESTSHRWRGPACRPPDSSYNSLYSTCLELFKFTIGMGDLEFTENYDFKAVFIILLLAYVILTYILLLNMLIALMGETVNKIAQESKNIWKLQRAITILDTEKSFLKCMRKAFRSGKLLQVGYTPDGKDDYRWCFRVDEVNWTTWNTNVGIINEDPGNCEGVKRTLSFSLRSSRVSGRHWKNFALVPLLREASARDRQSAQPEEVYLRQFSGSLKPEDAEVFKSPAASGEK
T4 sequence (P22303 32-614): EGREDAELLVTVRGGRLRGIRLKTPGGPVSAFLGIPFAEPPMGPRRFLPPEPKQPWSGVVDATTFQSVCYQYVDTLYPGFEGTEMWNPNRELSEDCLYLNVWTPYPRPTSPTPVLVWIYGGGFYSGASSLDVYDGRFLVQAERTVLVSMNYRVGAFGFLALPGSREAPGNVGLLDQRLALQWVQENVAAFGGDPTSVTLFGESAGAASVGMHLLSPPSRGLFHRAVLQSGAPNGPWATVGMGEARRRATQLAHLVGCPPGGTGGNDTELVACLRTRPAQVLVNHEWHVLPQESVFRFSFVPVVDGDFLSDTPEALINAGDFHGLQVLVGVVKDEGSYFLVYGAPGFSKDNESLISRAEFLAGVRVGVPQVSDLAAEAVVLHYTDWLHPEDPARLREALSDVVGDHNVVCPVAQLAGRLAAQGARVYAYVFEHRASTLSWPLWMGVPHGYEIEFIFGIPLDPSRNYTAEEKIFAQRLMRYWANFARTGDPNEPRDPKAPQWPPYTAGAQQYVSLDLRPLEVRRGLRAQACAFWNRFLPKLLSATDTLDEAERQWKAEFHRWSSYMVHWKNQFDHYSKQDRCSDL
T8 sequence (Q14524 whole entry): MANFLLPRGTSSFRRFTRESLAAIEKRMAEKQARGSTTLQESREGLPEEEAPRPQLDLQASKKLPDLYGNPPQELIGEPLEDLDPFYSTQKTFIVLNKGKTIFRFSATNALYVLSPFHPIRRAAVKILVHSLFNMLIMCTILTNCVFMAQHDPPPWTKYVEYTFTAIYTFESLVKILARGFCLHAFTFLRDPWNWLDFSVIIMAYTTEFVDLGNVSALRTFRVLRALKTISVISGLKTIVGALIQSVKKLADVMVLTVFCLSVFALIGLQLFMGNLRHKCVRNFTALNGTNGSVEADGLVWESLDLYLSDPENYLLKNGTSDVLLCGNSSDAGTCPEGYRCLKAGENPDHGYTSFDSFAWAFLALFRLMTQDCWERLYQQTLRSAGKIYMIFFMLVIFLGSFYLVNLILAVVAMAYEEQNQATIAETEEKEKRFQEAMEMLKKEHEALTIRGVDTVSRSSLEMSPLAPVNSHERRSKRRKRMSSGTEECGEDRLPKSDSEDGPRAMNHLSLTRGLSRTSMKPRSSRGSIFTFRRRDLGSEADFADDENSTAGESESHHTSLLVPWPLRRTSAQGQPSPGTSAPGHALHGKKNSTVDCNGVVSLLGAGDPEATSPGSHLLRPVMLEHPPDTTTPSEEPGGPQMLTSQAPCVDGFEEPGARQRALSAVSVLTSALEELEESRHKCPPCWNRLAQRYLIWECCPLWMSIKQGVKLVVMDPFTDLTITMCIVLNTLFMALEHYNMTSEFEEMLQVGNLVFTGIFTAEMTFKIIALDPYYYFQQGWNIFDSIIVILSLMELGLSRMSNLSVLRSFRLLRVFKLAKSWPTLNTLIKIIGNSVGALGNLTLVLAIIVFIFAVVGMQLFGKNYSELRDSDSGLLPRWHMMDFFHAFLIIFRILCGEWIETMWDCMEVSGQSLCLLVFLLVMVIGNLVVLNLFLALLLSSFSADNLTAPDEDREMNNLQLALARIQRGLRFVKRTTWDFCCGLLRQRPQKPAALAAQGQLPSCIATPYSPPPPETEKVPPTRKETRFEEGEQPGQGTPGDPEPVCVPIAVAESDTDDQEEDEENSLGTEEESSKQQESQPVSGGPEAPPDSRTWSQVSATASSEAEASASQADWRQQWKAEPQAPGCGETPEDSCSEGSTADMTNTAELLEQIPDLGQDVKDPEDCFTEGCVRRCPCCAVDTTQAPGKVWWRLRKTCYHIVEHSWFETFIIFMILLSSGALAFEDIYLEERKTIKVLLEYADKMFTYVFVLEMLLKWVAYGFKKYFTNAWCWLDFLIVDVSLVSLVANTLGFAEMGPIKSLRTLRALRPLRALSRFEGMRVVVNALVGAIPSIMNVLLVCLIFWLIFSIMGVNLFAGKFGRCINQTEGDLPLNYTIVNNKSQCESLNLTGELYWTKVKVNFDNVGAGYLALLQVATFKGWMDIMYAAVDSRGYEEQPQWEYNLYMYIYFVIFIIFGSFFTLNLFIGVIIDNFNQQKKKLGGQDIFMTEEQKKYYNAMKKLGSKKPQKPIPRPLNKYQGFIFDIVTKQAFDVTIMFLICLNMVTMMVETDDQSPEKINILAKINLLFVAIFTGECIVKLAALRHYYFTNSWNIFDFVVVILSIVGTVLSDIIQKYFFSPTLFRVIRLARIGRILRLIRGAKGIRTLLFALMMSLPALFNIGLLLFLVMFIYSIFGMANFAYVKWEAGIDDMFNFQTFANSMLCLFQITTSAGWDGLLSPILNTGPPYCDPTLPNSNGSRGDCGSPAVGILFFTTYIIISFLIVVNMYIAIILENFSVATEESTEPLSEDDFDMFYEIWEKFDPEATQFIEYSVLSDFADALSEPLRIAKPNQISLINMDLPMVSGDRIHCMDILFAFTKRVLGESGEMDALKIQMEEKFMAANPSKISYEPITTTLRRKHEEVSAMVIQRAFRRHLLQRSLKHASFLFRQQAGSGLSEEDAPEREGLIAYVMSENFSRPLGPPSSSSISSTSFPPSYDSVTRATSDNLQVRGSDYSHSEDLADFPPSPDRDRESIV
T3 sequence (P06239 whole entry): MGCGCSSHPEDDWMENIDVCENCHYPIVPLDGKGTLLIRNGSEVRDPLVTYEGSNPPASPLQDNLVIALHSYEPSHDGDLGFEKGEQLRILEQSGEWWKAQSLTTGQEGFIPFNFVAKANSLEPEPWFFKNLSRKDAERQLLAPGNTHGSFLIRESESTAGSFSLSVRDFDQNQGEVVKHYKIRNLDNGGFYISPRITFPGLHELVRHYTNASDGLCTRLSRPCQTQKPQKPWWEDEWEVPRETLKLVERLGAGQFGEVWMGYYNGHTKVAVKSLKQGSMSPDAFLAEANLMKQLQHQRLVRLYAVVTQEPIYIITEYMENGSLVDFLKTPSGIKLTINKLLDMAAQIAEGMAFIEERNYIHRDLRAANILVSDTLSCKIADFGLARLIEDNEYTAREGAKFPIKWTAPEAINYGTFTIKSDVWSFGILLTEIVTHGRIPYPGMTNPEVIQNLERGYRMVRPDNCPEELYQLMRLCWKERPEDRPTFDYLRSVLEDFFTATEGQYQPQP

In the case of `Cc1cc(C(=O)N2Cc3cnn(C)c3Nc3ccccc32)ccc1CNC(=O)N1CCC[C@H]1C(=S)N(C)C` [LIT-001], the “agonist or antagonist activity at GPCRs” value (24 off-target GPCRs) is reported as “No significant agonist or antagonist”, the inhibition at 1 µM (hERG; 1 μM) is reported as 9.5% and the inhibition at 10 µM (hERG; 10 μM) is reported as 10.6%. It also gave a solubility thermodynamic at 24 h ([1]; pH 7.4, aqueous buffer, thermodynamic from solid) of 530 ± 30 µM, a solubility thermodynamic at 24 h ([1]; pH 7.4) of 340 µg/mL and an inhibition at 5 µM (PDE3A) of 6.4 to 9.5%. It also gave an inhibition at 5 µM [2] of 6.4 to 9.5%, an inhibition at 5 µM (Lck kinase) of 6.4 to 9.5% and an inhibition at 5 µM (acetylcholinesterase) of 6.4 to 9.5%. For the same molecule, the “agonist or antagonist activity at TRPV1 receptor” value [3] was “No significant agonist or antagonist; also recorded: neither LIT-001 nor the OT antagonist L-368,699 displayed any significant agonist or antagonist activity”, the “affinity for V2R” value [4] was “low micromolar affinity” and the “degradation on human hepatocytes” value ([5]; 1 μM, 37 °C, after 2 hours) was “no degradation was observed”. For the same molecule, the half-life at 1 μM ([5]; human, human hepatocytes (cryopreserved, suspension), from in vitro stability results) was > 2 h, the CFA-induced edema size [6] was 9.49 ± 0.23 mm and the “hERG potassium channel blockade” value [7] was “no significant blockade activity”. For the same molecule, the “GABAA (alpha1/beta2/gamma2) channel blockade” value [8] was “no significant blockade activity”, the “Vav1.5 sodium channel blockade” value (Vav1.5 sodium channel) was “no significant blockade activity” and the “nAChR (alpha4/beta2) channel blockade” value (nAChR (alpha4/beta2)) was “no significant blockade activity”. For the same molecule, the EC50 (mOTR; agonist) was 18 nM, the “Emax (mOTR)” value (mOTR; efficacy) was 95% and the “EC50 (hV1BR)” value (V1bR (hV1BR); agonist mode) was “non significant”. For the same molecule, the “agonist or antagonist effect on V1bR” value (V1bR (hV1BR)) was “devoid of agonist or antagonist effect”.
